# Assay results taken from patent publication US11974571B1, “3-5-dinitro-N-(pyrimidin-2-ylcarbamothioyl)benzamide as an eco-friendly insecticidal agent against Spodoptera littoralis (boisd.)” (KING FAISAL UNIVERSITY, priority 2023, dated 2024).
# Where two headings read alike, the source gives them in different places.
# Test system: Spodoptera littoralis
# Test: Insecticidal bioassay screening (castor leaf dip), laboratory strain of cotton leafworm
# Type: in vivo
# Details: for Toxicity index %: 72 hrs, Diflubenzuron's LC50 / the compound's LC50 × 100; for LC50: Spodoptera littoralis, foliar, 72 h
# Procedure: Five concentrations (200, 100, 50, 25, 12.5 ppm) were designed for this synthetic compound and the reference Diflubenzuron compound as the dynamic ingredients based on mg/L via diluting the commercial formulation.
# […] Larvae of the second and fourth instars of each checked strain are prepared with treated leaves in gauze-covered glass containers for 72 hrs. An untreated control is made in which leaves are dipped in triton x-100 and distilled water only. Then the preserved leaves were removed & fresh, untreated leaves were provided for 72 hours. Three replicates (10 larvae each) were checked for each concentration. Daily inspection was carried out for all treatments and mortality percentages were recorded 3 days (72 hours) after treatment. The average mortality percentage was corrected employing Abbott's formula. The corrected mortality rate for each of the previously synthesized compounds is statistically calculated according to Finney (1970). Through this rate, the corresponding concentration test lines (LDP lines) are assessed.
# [1] = 2nd instar larvae, laboratory strain, after 72 hrs of treatment
# [2] = 4th instar larvae, laboratory strain, after 72 hrs of treatment
# [3] = read-out: LC50 (mg/L) at 95%, 2nd instar larvae, laboratory strain, after 72 hrs of treatment
# [4] = read-out: LC50 (mg/L) at 95%, 4th instar larvae, laboratory strain, after 72 hrs of treatment
Structure (SMILES),Toxicity index % (2nd instar larvae),LC50 (mg/L) at 95% [1],LC90 (mg/L) at 95% [1],Toxicity index % (4th instar larvae),LC90 (mg/L) at 95% [2],LC50 [3],LC50 [4]
"O=C(NC(=S)Nc1ncccn1)c1cc([N+](=O)[O-])cc([N+](=O)[O-])c1 [Compound 1, 3,5-dinitro-N-(pyrimidin-2-ylcarbamothioyl)benzamide]",23.7%,about 190.0 mg/L,1713.2 mg/L,33.4%,4020.4 mg/L,190 mg/L,~430 mg/L
"O=C(NC(=O)c1c(F)cccc1F)Nc1ccc(Cl)cc1 [Diflubenzuron, reference compound]",100%,–,520.0 mg/L,100%,1540.5 mg/L,45.2 mg/L,144 mg/L
